Laboratory results from patent US12729377B2, “RNAi agents and compositions for inhibiting expression of angiopoietin-like 3 (ANGPTL3), and methods of use” (Arrowhead Pharmaceuticals, Inc., priority 2017, dated 2026).
In the oligonucleotide strings, read from the 5' end, every base follows the letter of its sugar. An asterisk marks phosphorothioate; unmarked linkages are phosphodiester. Other units and linkages are bracketed, terminal groups are in braces. A string of capitals states the bases alone. {NAG37} = tridentate N-acetyl-galactosamine targeting ligand, structure (NAG37)s; [invAb] = inverted abasic unit; m = 2'-O-methyl; f = 2'-fluoro

Key:
ANGPTL3 gene [1] = assay: Example 2: serum triglycerides in mice; format: in vivo
Experimental: (§1) To assess the in vivo activity of ANGPTL3 RNAi agents that are designed to target different positions on the ANGPTL3 gene, six- to eight-week-old female C57bl/6 mice were used. Pre-dose serum samples were taken at day −1 after a four hour fast. At day 1, each mouse was given a single subcutaneous administration of 200 μl containing either 3 mg/kg (mpk) of an ANGPTL3 RNAi agent in D5W (dextrose in 5% water), or control (D5W) with no RNAi agent, according to the dosing groups recited in Table 7.
(§2) Each of the RNAi agents included a modified sequence and an N-acetyl-galactosamine-containing targeting ligand conjugated to the 5′ terminal end of the sense strand. (See Tables 3, 4, and 5 for modified sequences and targeting ligand structures). The injections were performed between the skin and muscle (i.e. subcutaneous injections) into the loose skin over the neck and shoulder area. Three (3) mice in each group were tested (n=3). Serum was collected on days 8, […], 22, 29, and day 36 (for Groups 1 and 5-11 only). Mice were fasted for four hours prior to each collection. ANGPTL3 protein levels in serum were measured by ELISA assay (R&D Systems), according to the manufacturer's recommendations. Triglycerides, high-density lipoprotein (HDL), and total cholesterol in serum were measured on a Cobas® Integra 400 (Roche Diagnostics), according to the manufacturer's recommendations.
(§3) The ANGPTL3 protein levels, triglyceride levels, HDL levels, and total cholesterol levels for each animal were normalized. For normalization, the level of ANGPTL3 protein, triglyceride, HDL, and total cholesterol, respectively, for each animal at a time point, was divided by the pre-treatment level of expression in that animal (in this case at day −1) to determine the ratio of expression “normalized to pre-treatment.” Expression at a specific time point was then normalized to the D5W control group by dividing the “normalized to pre-treatment” ratio for an individual animal by the mean “normalized to pretreatment” ratio of all mice in the D5W control group.

ANGPTL3 gene [2] = assay: Example 2: serum total cholesterol in mice; format: in vivo
Experimental: as §1, §2, §3

ANGPTL3 gene [3] = assay: Example 2: serum HDL in mice; format: in vivo
Experimental: as §1, §2, §3

ANGPTL3 gene [4] = assay: Example 8: serum total cholesterol in cynomolgus monkeys; format: in vivo, cynomolgus macaque (Macaca fascicularis); details: 3.0 mg/kg single SC injection day 1, cynos, n=2
Experimental: (§4) Additional ANGPTL3 RNAi agents were evaluated in cynomolgus monkeys. On day 1, cynomolgus macaque (Macaca fascicularis) primates (also referred to herein as “cynos”) were administered a single subcutaneous injection of 0.3 mL/kg (approximately 1-2 mL volume, depending on animal mass) containing 3.0 mg/kg of one of ANGPTL3 RNAi agent AD05577, AD05307, AD05488, AD05654, or AD05659, each formulated in saline.
(§5) Two (2) cynos in each group were tested (n=2). Blood samples were drawn and serum samples were analyzed on days −8 (pre-dose), 1 (pre-dose), 8, 15, 22, 29, and 36. Cynos were fasted overnight prior to each collection. ANGPTL3 protein levels in serum were measured by ELISA assay (R&D Systems), according to the manufacturer's recommendations. Triglycerides, total cholesterol, high-density lipoprotein (HDL), and low-density lipoprotein (LDL) in serum were measured on a Cobas® Integra 400 (Roche Diagnostics), according to the manufacturer's recommendations.
(§6) The ANGPTL3 protein levels, triglyceride levels, total cholesterol levels, HDL levels, and LDL levels for each animal were normalized. For normalization, the level of ANGPTL3 protein, triglyceride, HDL, and total cholesterol, respectively, for each animal at a time point, was divided by the average pre-treatment level of expression in that animal (in this case at days −8, and 1 (pre-dose)) to determine the ratio of expression “normalized to pre-treatment.”

ANGPTL3 gene [5] = assay: Example 8: serum HDL in cynomolgus monkeys; format: in vivo, cynomolgus macaque (Macaca fascicularis); details: 3.0 mg/kg single SC injection day 1, cynos, n=2
Experimental: as §4, §5, §6

ANGPTL3 gene [6] = assay: Example 8: serum LDL in cynomolgus monkeys; format: in vivo, cynomolgus macaque (Macaca fascicularis); details: 3.0 mg/kg single SC injection day 1, cynos, n=2
Experimental: as §4, §5, §6

[7] = Day 8, 3.0 mg/kg single subcutaneous dose on day 1, female C57bl/6 mice
[8] = Day 13, 3.0 mg/kg single subcutaneous dose on day 1, female C57bl/6 mice
[9] = Day 22, 3.0 mg/kg single subcutaneous dose on day 1, female C57bl/6 mice
[10] = Day 29, 3.0 mg/kg single subcutaneous dose on day 1, female C57bl/6 mice
[11] = Day 36, 3.0 mg/kg single subcutaneous dose on day 1, female C57bl/6 mice

In the case of “AD05307: RNAi agent duplex: antisense AM07001-AS, sense AM07000-SS (chain 1 mU*fU*mU*fGmAfAmUfUmAfAmUfGmUfCmCfAmUfGmGmG*mC; chain 2 {NAG37}*[invAb]*mGmCmCmCmAmUmGmGfAfCfAmUmUmAmAmUmUmCmAmAmA*[invAb])”, the “Avg TG (Average Triglycerides Normalized to Pre-Treatment and Control)” value (ANGPTL3 gene [1]; [7]) is reported as 0.504, the “Avg TG (Average Triglycerides Normalized to Pre-Treatment and Control)” value (ANGPTL3 gene [1]; [8]) is reported as 0.655 and the “Avg TG (Average Triglycerides Normalized to Pre-Treatment and Control)” value (ANGPTL3 gene [1]; [9]) is reported as 0.459. The “Avg TG (Average Triglycerides Normalized to Pre-Treatment and Control)” value (ANGPTL3 gene [1]; [10]) was 0.629, the “Avg TG (Average Triglycerides Normalized to Pre-Treatment and Control)” value (ANGPTL3 gene [1]; [11]) was 0.602 and the “Avg Total Chol (Average Total Cholestrol Normalized to Pre-Treatment and Control)” value (ANGPTL3 gene [2]; [7]) was 0.649. For the same substance, the “Avg Total Chol (Average Total Cholestrol Normalized to Pre-Treatment and Control)” value (ANGPTL3 gene [2]; [8]) was 0.570, the “Avg Total Chol (Average Total Cholestrol Normalized to Pre-Treatment and Control)” value (ANGPTL3 gene [2]; [9]) was 0.628 and the “Avg Total Chol (Average Total Cholestrol Normalized to Pre-Treatment and Control)” value (ANGPTL3 gene [2]; [10]) was 0.753. For the same substance, the “Avg Total Chol (Average Total Cholestrol Normalized to Pre-Treatment and Control)” value (ANGPTL3 gene [2]; [11]) was 0.755, the “Avg HDL (Average HDL Normalized to Pre-Treatment and Control)” value (ANGPTL3 gene [3]; [7]) was 0.633 and the “Avg HDL (Average HDL Normalized to Pre-Treatment and Control)” value (ANGPTL3 gene [3]; [8]) was 0.524. For the same substance, the “Avg HDL (Average HDL Normalized to Pre-Treatment and Control)” value (ANGPTL3 gene [3]; [9]) was 0.588, the “Avg HDL (Average HDL Normalized to Pre-Treatment and Control)” value (ANGPTL3 gene [3]; [10]) was 0.724 and the “Avg HDL (Average HDL Normalized to Pre-Treatment and Control)” value (ANGPTL3 gene [3]; [11]) was 0.702. The “Avg Total Chol normalized to pre-treatment” value (shortened to “Avg Total Chol normalized”) (ANGPTL3 gene [4]; Day 8) was 0.994, the “Avg Total Chol normalized” value (ANGPTL3 gene [4]; Day 15) was 1.006 and the “Avg Total Chol normalized” value (ANGPTL3 gene [4]; Day 22) was 0.905. For the same substance, the “Avg Total Chol normalized” value (ANGPTL3 gene [4]; Day 29) was 0.954, the “Avg Total Chol normalized” value (ANGPTL3 gene [4]; Day 36) was 0.909 and the “Average HDL Normalized to Pre-Treatment” value (ANGPTL3 gene [5]; Day 8) was 1.007. The “Average HDL Normalized to Pre-Treatment” value (ANGPTL3 gene [5]; Day 15) was 0.946, the “Average HDL Normalized to Pre-Treatment” value (ANGPTL3 gene [5]; Day 22) was 0.879 and the “Average HDL Normalized to Pre-Treatment” value (ANGPTL3 gene [5]; Day 29) was 0.998. The “Average HDL Normalized to Pre-Treatment” value (ANGPTL3 gene [5]; Day 36) was 0.863, the “Average LDL Normalized to Pre-Treatment” value (ANGPTL3 gene [6]; Day 8) was 1.008 and the “Average LDL Normalized to Pre-Treatment” value (ANGPTL3 gene [6]; Day 15) was 1.102. The “Average LDL Normalized to Pre-Treatment” value (ANGPTL3 gene [6]; Day 22) was 0.971, the “Average LDL Normalized to Pre-Treatment” value (ANGPTL3 gene [6]; Day 29) was 1.106 and the “Average LDL Normalized to Pre-Treatment” value (ANGPTL3 gene [6]; Day 36) was 0.894.
